Measurements as given in patent US6413937B1, “Combinations for use in increasing the potency of a substrate for multidrug resistance related protein” (Dublin City University and Enterprise Ireland, priority 1996, dated 2002).

Columns and labels:
[1] = system: murine and human cultured tumour cells; conditions: non-toxic concentrations of indomethacin; in vitro; cited from earlier work
GSTs = conditions: cited from earlier work
DLKP-A cell line = experiment: miniaturised in vitro colorimetric cell survival assay, P-170 overexpressing DLKP-A; type: cell-based, human
Description: All the results presented in this Example for the DLKP, A549 and OAW42-SR cell lines were derived using the same miniaturised in vitro calorimetric assay system. On Day 1 of the assay 1000 cells/well/100 μl were plated into 96-well plates. Cells were allowed to attach overnight and cell viability was visually assessed. On Day 2 the two drugs (i.e. NSAID plus chemotherapeutic drug) to be analysed were added onto the cells. The individual drugs were added separately in 50 μl quantities (4× stocks, to take into account the dilution effect of having 200 μl final volume in each well). The drugs were left on the cells for five further days (Day 7) and cell number was determined using the acid phosphatase end-point assay which uses p-nitrophenol phosphate as substrate (Martin, A. and Clynes, M. (1991) In Vitro Dev. Biol., 27A, 183-184). On Day 7 the culture medium was removed from the cells and they were washed once with phosphate buffered saline (PBS). After washing, 100 μl of freshly prepared substrate-containing buffer (0.1% Triton X-100 in 0.1M sodium acetate, pH 5.5) was added to each well and the plates were left in an incubator at 37° C. for 2 h. After the incubation period 50 μl of 1N NaOH was added to each well to develop the colour. The plates were then read at 405 nm (reference 620 nm) on an ELISA plate-reader.
In the results given below the % cell survival in the drug-free control is 100%. All results are the cell survival means ±S.D. from a minimum of three experiments.
v) is an example of a positive NSAID plus a positive drug on a P-170 overexpressing cell line: DLKP-A;

HL-60ADR cells = experiment: etoposide-induced apoptosis (nuclear fragmentation), HL-60ADR; type: cell-based; conditions: HL-60ADR (resistant); etoposide alone or co-treated with sulindac; FIG. 1
Description: (§1) An experiment was carried out to determine the effect of the NSAID sulindac on etoposide-induced apoptosis in two cell lines, namely HL-60S and HL-60ADR. These cell lines were donated by Dr. Melvin Center, Kansas State University, Manhattan Kans. 66506, U.S.A. For the HL-60S and ADR cell lines the percentage of apoptotic cells within the cell population, following drug exposure, was used to quantify toxicity. Cells were plated in fresh medium at a concentration of 10^6 cells/ml in a 24-well plate (Greiner) and drugs were then added to the wells. A 200 μl sample from each well was taken after 4 and 8 hrs. Samples were cytospun for 2 min at 500 rpm using a Shandon Cytofuge3. After air-drying the cytospins were stained using a Romanowsky staining kit, Rappi-Diff II (Langanbach), dried and mounted in DPX (BDH). Slides were studied on an Optiphot microscope (Nikon) fitted with a 40× objective, and visualised on a monitor via a Mitsubishi CCD-100E colour CCD-camera and a 0.6× relay lens. Nuclear fragmentation was used as a morphological marker for apoptosis and a minimum of 200 cells were assessed in at least three different microscopic fields. Results were expressed as the percentage of apoptotic cells within the population. Each experiment was repeated in duplicate.

[2] = system: COR L23 P (non-MRP) cells; conditions: doxorubicin 10 mg/ml alone or with sulindac 20 mg/ml, 1, 2, 4 h, FIG. 4
Description: (§2) 10^6 COR L23 P (parental non-MRP resistant, MRP−) or COR L23 R (MRP resistant, MRP+) cells were added to 75 cm^3 vented flasks containing HEPES buffered Rosemount Park Memorial Institute (RPMI) medium and maintained at 37° C. in a 5% CO2 atmosphere. […] After three days of growth, doxorubicin (final concentration 10 mg/ml), sulindac (final concentration 20 mg/ml) or doxorubicin and sulindac were added to individual flasks. Samples were taken after 1, 2 and 4 h. and assayed for drug content.
(§3) The contents of each flask were washed twice with 5 ml of PBS and stored at −70° C. The flasks were thawed and 100 μl of water and 100 μl of 33% silver nitrate added to each and mixed for 5 min. […]
(§4) The extract was resuspended in 50 μl of methanol in the sample vial and loaded into the HPLC autosampler. […] The mobile phases were pumped through a C18 reversed-phase Ultrasphere XL (Beckman) HPLC column (4.6×70 mm) with absorbance measured at 253 nm. […] The amount of doxorubicin and sulindac present was quantified by measuring the peak height of these drugs and the internal standard. […] The concentration of doxorubicin in the samples was calculated from the) nd development standard line using the peak height ratio. The sulindac concentrations were calculated by the same method.

HL-60S cells = experiment: etoposide-induced apoptosis (nuclear fragmentation), HL-60S; type: cell-based; conditions: HL-60S (sensitive); etoposide with sulindac; FIG. 2
Description: as §1

COR L23 R (MRP+) cells = conditions: doxorubicin 10 mg/ml alone or with sulindac 20 mg/ml, 1, 2, 4 h, FIG. 3
Description: as §2, §3, §4

COc1ccc2c(c1)c(CC(=O)O)c(C)n2C(=O)c1ccc(Cl)cc1 [Indomethacin, indomethacin]
enhancement of VP-16 sensitivity [1]: enhanced the VP-16 sensitivity of a variety of cancer cell lines
inhibition of GSTs (GSTs): inhibitor of GSTs

CC1=C(CC(=O)O)c2cc(F)ccc2/C1=C\c1ccc([S+](C)[O-])cc1 (stereo not drawn) [Sulindac, sulindac]
% cell survival (DLKP-A cell line; v) Sulindac 1.5 μg/ml, alone or + Vincristine 1.0 μg/ml): 108.9 ± 8.0%
% cell survival (DLKP-A cell line; v) Sulindac 3 μg/ml, alone or + Vincristine 1.0 μg/ml): 86.30 ± 13.7%
% cell survival (DLKP-A cell line; v) Sulindac alone (concentration not given) or Sulindac 6 μg/ml + Vincristine 1.0 μg/ml): 105.7 ± 5.2%
etoposide-induced apoptosis, percentage of apoptotic cells (HL-60ADR cells): a significant increase in the amount of cells dying by apoptosis is observed
doxorubicin level in the cells [2]: regardless of the co-treatment with sulindac
etoposide-induced apoptosis, percentage of apoptotic cells (HL-60S cells): the increased apoptosis is only due to an additive effect of both etoposide and sulindac
doxorubicin level in the cells (COR L23 R (MRP+) cells): the doxorubicin level in the cells is increased to near that found in the MRP—cells
